Measurements reported in patent US12427183B2, “Methods of treating cancer, infectious disease, and autoimmune disease using chemokines” (New York Society for the Relief of the Ruptured and …, priority 2016, dated 2025).
Blank lines part the entries; values can stand above or below the molecule they belong to.

Assays:
[1] = tested on: purified pDCs from HDs or SSc patients; assay: IFN production by purified pDCs cultured with chemokine alone; assay type: cell-based, human; details: chemokine 10 μg/ml without CpG, results not shown
Experimental: (§1) PBMCs were prepared using Ficoll-Paque density gradient from fresh blood under internal Institutional Review Board-approved protocols. pDCs were isolated as previously described (Guiducci et al. 2008) using either using negative depletion (Miltenyi Biotech) or following cell sorting using a BD IFNLUX cell sorter. As part of the gating strategy, neutrophils were excluded by FSC/SSC and cells positive for CD14 (CD3 and CD19 as well) were first excluded in order to prevent the contamination by TLR8 positive cells and then positively gated on HLA-DR, CD123 and BDCA4 to purify the pDCs. All BDCA4+ cells also express BDCA2 (results not shown). As a result, pure pDCs were obtained and no markers for neutrophils (CD66) or myeloid cells were found by PCR. B cells were FACS sorted as CD19+ and monocytes as CD14+ cells. PBMCs were depleted of pDCs using BDCA4 beads from Miltenyi. pDCs were cultured at 10,000-30,000 cells per well in a 96-round bottom plate and incubated at 37° C., 5% CO2 and 95% humidity. After 24 hours of culture, the supernatant was collected for ELISA or Mutiplex cytokine assays. In some culture conditions, cells were cultured with the PI3Kδ inhibitor, CAL-101 (Selleck chemicals) for 24 hours. The RNA-based TLR8 agonist, ORN8-L previously described (Guidacci et al. 2013) was synthetized by Chemgenes Corporation. For the TLR8 activation assay, pDCs were incubated in complete media alone, 200 μg/ml ORN8-L in complete media or 200 μg/ml ORN8-L+ 10 μg/ml CXCL4 (R&D systems).
Supernatant from pDCs 24 hour culture was used for quantification of secreted chemokines and cytokines and measured with the use of an enzyme-linked immunosorbent assay (ELISA) or Luminex multiplex-beads immunoassay. CXCL4 ELISA (Ray Biotech) and IFNα, IP-10, IL-6, TNF Luminex assay (Millipore) was performed according to the manufacturer's protocol. Due to the variability in the number of cells obtained from the different patients and so we could compare the values across donors, all results were normalized to 10,000 cells. Of note, for all donors, pDCs were plated between 10,000-30,000 cells.
When purified pDCs from HDs or SSc patients were cultured with CXCL4 alone ([…]), there was no effect on IFN production.
(§2) 5×10^5 PBMCs or pDC-depleted PBMCs were cultured in 96 wells plate and stimulated with 0.25 μM CpG DNA with or without 10 μg/ml CXCL4, CXCL10, CXCL12 or CCL5. Freshly isolated pDCs were resuspended at 5×10^4 cells/100 μl RPMI 1640 medium (Gibco) and stimulated with the 0.25 μM CpG with/without 10 μg/ml indicated chemokines. The supernatant was harvested after 18 h and IFN-α was measured by ELISA.

[2] = tested on: TLR9-mediated activation of pDCs; assay: TLR9-mediated activation of purified pDCs (CpG with or without chemokines), IFN-α ELISA; assay type: cell-based, human; details: for TLR9-induced response (IFN-α secretion) by pDCs / IFNα production from TLR9 in pDCs from HDs: CpG 0.25 μM; for TLR9-induced response (IFN-α secretion) by pDCs: chemokine 10 μg/ml (Example 17); for dependence of IFN-α superinduction on chemokine receptors: with AMG487 100 nM, AMD3100 10 μg/ml, anti-CXCR7 11G8 10 μg/ml, J113863 1.5 μM or Vicriviroc 0.1 μM; for IFNα production from TLR9 in pDCs from HDs: chemokine 10 μg/ml (Example 9)
[3] = tested on: PBMCs and pDC-depleted PBMCs; assay: IFN-α production in PBMCs and pDC-depleted PBMCs cultured with CpG and chemokines (ELISA); assay type: cell-based, human; details: CpG 0.25 μM + chemokine 10 μg/ml
Experimental: PBMCs were prepared using Ficoll-Paque density gradient (GE Healthcare) as previously described (Guiducci et al., 2008).
pDCs were isolated from PBMCs by positive selection using BDCA4-MicroBead Kit as previously described (Guiducci et al., 2008). pDC-depleted PBMC were prepared by removing BDCA4-positive cells from PBMC using microbeads.
as §2
As shown above, CXCL4 can increase IFN-α production by TLR9-activated pDCs. Thus it was tested whether other chemokines may impact TLR9 signaling in pDCs. Purified pDCs were left unstimulated (Unstim.) or cultured with CpG (0.25 μM) alone or with the indicated chemokines at 10 μg/ml. IFN-α secretion was quantified by ELISA. Strikingly, it was observed that a set of chemokines, including CXCL4, CXL10, CXCL12 and CCL5, were able to superinduce TLR9-induced response by pDCs (FIG. 18A), while they had no effect when used alone (results not shown). […] This also raised questions as to the specificity and mechanism for this effect. First, as other DNA sensors have been described to induce IFN-α in immune cells (Barrat et al., 2016), it was tested to see if these chemokines altered the specificity of the CpGs for TLR9 and if the IFN-α response was restricted to pDCs. Total PBMCs or PBMCs where pDCs were depleted (PBMC-ΔpDCs) were incubated with CpGs and either CXCL4, CXCL10, CXCL12 or CCL5 and IFN-α production was quantified by ELISA.

[4] = tested on: pDCs of HDs; assay: TLR gene expression in purified pDCs from HDs cultured with cytokines or chemokines (qPCR); assay type: cell-based, human; details: 24 hours; for induction of TLR8 expression on pDCs of HDs: purified pDCs from HDs, IFN-α and IFN-γ 10 ng/ml, IL-12 100 ng/ml, IL-6 5 ng/ml, IL-10 10 ng/ml, TNF 1 ng/ml, TGF-β 10 ng/ml
Experimental: as §1
PCR reactions were performed as described previously with 10 ng of cDNA (Barrat et al. 2005). In brief, RNA was extracted from cells using the Qiagen RNeasy Mini Kit. Quantity of RNA was measured by Nanodrop and high-capacity cDNA Reverse Transcription kit was used to generate 20-50 ng cDNA. Gene expression levels were calculated based on relative threshold cycle (Ct) values. This was done using the formula Relative Ct=100×1.8 (HSK-GENE), where HSK is the mean CT of duplicate housekeeping gene runs (we used Ubiquitin), GENE is the mean CT of duplicate runs of the gene of interest, and 100 is arbitrarily chosen as a factor to bring all values above 0.
In particular, CXCL4 or IP-10 (two CXCR3B agonists) (10 μg/ml each) had no impact on TLR8 nor TLR7 and TLR9 expression levels in pDCs (FIG. 2C).

[5] = tested on: TLR9-mediated activation of human B cells; assay: TLR9-mediated activation of human B cells (CpG with or without chemokines); assay type: cell-based; details: chemokine 10 μg/ml; for activation of B cells via TLR9 as shown by the production of IL-6: CpG 0.15 μM, ELISA
Experimental: as §1
IL-6, TNF, and IL-10 gene levels were measured at 6 hours post culture using PCR. The secretion of cytokines/chemokines in the supernatants was quantified using Luminex. CD83, CD80, CD86 and CD69 expression was measured by flow cytometry at 24 hour post culture.
Human B cells were purified and cultured for 6 hours or 24 hours either with medium only, with CpG-C (at 0.15 μM) alone or with a combination of CpG-C and CXCL4 (at 10 μg/ml). IL-6 gene levels was measured at 6 hour post culture by PCR and CD83, CD80, CD86 and CD69 expression was measured by flow cytometry at 24 hour post culture.
Purified B cells from HDs were cultured in media alone (control), with either a CpG TLR9 agonist (0.15 μM) or with CpG and either CXCL4, CXCL10, CXCL9, CXCL4, CXCL7 or CXCL12 (all at 10 μg/ml). IL-6 was quantified in the supernatants by ELISA.
Purified B cells from HDs were cultured in media alone (control), with either a CpG TLR9 agonist (0.25 μM) or with CpG and CXCL4 or CXCL10 (10 μg/ml) alone or in the presence of the CXCR3 inhibitor AMG487 at 0, 0.1, 1 or 10 μM for 6 hours or 24 hours. IL-6 was quantified by ELISA at 24 hours and IL-6 and TNF gene expression levels were quantified by q-PCR at 6 hours and CD83, CD80, CD86 and CD69 expression was measured by flow cytometry at 24 hours post culture.

dependence of IFN-α superinduction on chemokine receptors [2]: independent of their chemokine receptors
Molecule: CCL5: small chemokine belonging to the CC chemokine family
IFN-α secretion by pDCs, chemokine used alone [1]: no effect | TLR9-induced response (IFN-α secretion) by pDCs [2]: superinduce | IFN-α production in absence of the pDCs (PBMC-ΔpDCs versus total PBMCs) [3]: dramatic decrease

dependence of IFN-α superinduction on chemokine receptors [2]: independent of their chemokine receptors
Molecule: CXCL10: small chemokine belonging to the CXC chemokine family and a ligand for the receptor CXCR3
TLR8, TLR7 and TLR9 expression levels in pDCs ([4]; 10 μg/ml each, pDCs from HDs): no impact | IFN-α secretion by pDCs, chemokine used alone [1]: no effect | IFNα production from TLR9 in pDCs from HDs [2]: potentiated | TLR9-induced response (IFN-α secretion) by pDCs [2]: superinduce | effect of inhibition of CXCR3 on the chemokine's inhibition of TLR9 in B cells ([5]; CXCR3 inhibitor AMG487 0.1, 1 or 10 μM, CpG 0.25 μM, 6 or 24 hours): no effect | activation of B cells via TLR9 as shown by the production of IL-6 [5]: inhibited | IFN-α production in absence of the pDCs (PBMC-ΔpDCs versus total PBMCs) [3]: dramatic decrease

dependence of IFN-α superinduction on chemokine receptors [2]: independent of their chemokine receptors
Molecule: CXCL12: stromal cell-derived factor-1, small chemokine belonging to the CXC chemokine family
IFN-α secretion by pDCs, chemokine used alone [1]: no effect | IFNα production from TLR9 in pDCs from HDs [2]: potentiated | TLR9-induced response (IFN-α secretion) by pDCs [2]: superinduce | activation of B cells via TLR9 as shown by the production of IL-6 [5]: inhibited | IFN-α production in absence of the pDCs (PBMC-ΔpDCs versus total PBMCs) [3]: dramatic decrease

Molecule: IL-6: cytokine added to pDC culture at 5 ng/ml
induction of TLR8 expression on pDCs of HDs [4]: none of these molecules could induce TLR8

Molecule: IFN-α
induction of TLR8 expression on pDCs of HDs [4]: none of these molecules could induce TLR8

Molecule: TGF-β
induction of TLR8 expression on pDCs of HDs [4]: none of these molecules could induce TLR8

Molecule: heparin [reference compound]
superinduction of IFN-α by all four chemokines (CXCL4, CXCL10, CXCL12, CCL5) ([2]; heparin 1 U/ml, CpG-activated pDCs): reduced

B1: IL-10: cytokine added to pDC culture at 10 ng/ml (protein, UniProt P22301 19-178, looked up)
Interleukin-10: SPGQGTQSENSCTHFPGNLPNMLRDLRDAFSRVKTFFQMKDQLDNLLLKESLLEDFKGYLGCQALSEMIQFYLEEVMPQAENQDPDIKAHVNSLGENLKTLRLRLRRCHRFLPCENKSKAVEQVKNAFNKLQEKGIYKAMSEFDIFINYIEAYMTMKIRN
induction of TLR8 expression on pDCs of HDs [4]: none of these molecules could induce TLR8

B2: IL-12: cytokine added to pDC culture at 100 ng/ml (protein, UniProt P29459 23-219; P29460 23-328, looked up)
Interleukin-12 subunit alpha: RNLPVATPDPGMFPCLHHSQNLLRAVSNMLQKARQTLEFYPCTSEEIDHEDITKDKTSTVEACLPLELTKNESCLNSRETSFITNGSCLASRKTSFMMALCLSSIYEDLKMYQVEFKTMNAKLLMDPKRQIFLDQNMLAVIDELMQALNFNSETVPQKSSLEEPDFYKTKIKLCILLHAFRIRAVTIDRVMSYLNAS
Interleukin-12 subunit beta: IWELKKDVYVVELDWYPDAPGEMVVLTCDTPEEDGITWTLDQSSEVLGSGKTLTIQVKEFGDAGQYTCHKGGEVLSHSLLLLHKKEDGIWSTDILKDQKEPKNKTFLRCEAKNYSGRFTCWWLTTISTDLTFSVKSSRGSSDPQGVTCGAATLSAERVRGDNKEYEYSVECQEDSACPAAEESLPIEVMVDAVHKLKYENYTSSFFIRDIIKPDPPKNLQLKPLKNSRQVEVSWEYPDTWSTPHSYFSLTFCVQVQGKSKREKKDRVFTDKTSATVICRKNASISVRAQDRYYSSSWSEWASVPCS
induction of TLR8 expression on pDCs of HDs [4]: none of these molecules could induce TLR8

B3: CXCL9: belongs to the CXC chemokine family, also known as MIG (protein, UniProt Q07325 23-125, looked up)
C-X-C motif chemokine 9: TPVVRKGRCSCISTNQGTIHLQSLKDLKQFAPSPSCEKIEIIATLKNGVQTCLNPDSADVKELIKKWEKQVSQKKKQKNGKKHQKKKVLKVRKSQRSRQKKTT
activation of B cells via TLR9 as shown by the production of IL-6 [5]: inhibited

B4: IFN-γ: cytokine added to pDC culture at 10 ng/ml (protein, UniProt P01579 24-161, looked up)
Interferon gamma: QDPYVKEAENLKKYFNAGHSDVADNGTLFLGILKNWKEESDRKIMQSQIVSFYFKLFKNFKDDQSIQKSVETIKEDMNVKFFNSNKKKRDDFEKLTNYSVTDLNVQRKAIHELIQVMAELSPAAKTGKRKRSQMLFRG
induction of TLR8 expression on pDCs of HDs [4]: none of these molecules could induce TLR8
